Measurements published in patent US20240072809A1, “ASGPR-BINDING COMPOUNDS FOR THE DEGRADATION OF EXTRACELLULAR PROTEINS” (Avilar Therapeutics, Inc., priority 2020, published 2024).
Read-outs that look alike come from different tables or passages of the source.

Biological target: ASGPR (Homo sapiens (Human), UniProt P07306)
Test: Affinity to ASGPR measured by surface plasmon resonance (SPR)
Type: binding
[1] = ASGPR ligands, Table 4, class symbols, read-out: ASGPR_PR Binding KD
[2] = ASGPR ligands, Table 4, numeric lower bounds, read-out: ASGPR_PR Binding KD

ASGPR, sequence (P07306 whole entry): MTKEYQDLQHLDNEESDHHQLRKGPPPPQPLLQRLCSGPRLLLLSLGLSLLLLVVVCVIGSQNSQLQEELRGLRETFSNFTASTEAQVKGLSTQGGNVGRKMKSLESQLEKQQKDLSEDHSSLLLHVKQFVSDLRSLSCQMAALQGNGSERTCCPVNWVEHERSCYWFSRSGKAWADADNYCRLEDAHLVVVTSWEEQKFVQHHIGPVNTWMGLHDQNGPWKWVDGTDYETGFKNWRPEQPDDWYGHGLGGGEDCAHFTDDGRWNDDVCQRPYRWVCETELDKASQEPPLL

CO[C@H]1O[C@H](CO)[C@H](O)[C@H](O)[C@H]1Nc1cccc(F)n1 [Compound A380]
Kd [1]: < 100 µM

CO[C@H]1O[C@H](CO)[C@H](O)[C@H](O)[C@H]1Nc1cccc(C(F)(F)F)n1 [Compound A381]
Kd [1]: < 100 µM

CO[C@H]1O[C@H](CO)[C@H](O)C[C@H]1Nc1nc(N2CCOCC2)ns1 [Compound A382]
Kd [1]: < 100 µM

CO[C@@H]1O[C@H](CO)[C@H](O)[C@H](O)[C@H]1Nc1ncc(F)cc1F [Compound A383, (2R,3R,4R,5R,6R)-5-((3,5-difluoropyridin-2-yl)amino)-2-(hydroxymethyl)-6-methoxytetrahydro-2H-pyran-3,4-diol]
Kd [1]: < 100 µM

CO[C@@H]1O[C@H](CO)[C@H](O)[C@H](O)[C@H]1Nc1nccc(C(F)(F)F)n1 [Compound A384]
Kd [1]: < 100 µM

CO[C@@H]1O[C@H](CO)[C@H](O)[C@H](O)[C@H]1Nc1nc(C(=O)O)cs1 [Compound A385]
Kd [2]: > 200 µM

CO[C@@H]1O[C@H](CO)[C@H](O)[C@H](O)[C@H]1Nc1nc(C#N)cs1 [Compound A386]
Kd [2]: > 20 µM

OC[C@H]1OC[C@@H](Nc2ncc(Cl)cc2F)[C@@H](O)[C@H]1O [Compound A388]
Kd [2]: > 20 µM

OC[C@H]1OC[C@@H](NC2=NCCC(C(F)(F)F)=N2)[C@@H](O)[C@H]1O [Compound A389]
Kd [2]: > 20 µM

CN1CCN(C[C@@H]2CO[C@H](CO)[C@H](O)[C@@H]2O)CC1 [Compound A390, (2R,3R,4R,5R)-2-(hydroxymethyl)-5-((4-methylpiperazin-1-yl)methyl) tetrahydro-2H-pyran-3,4-diol]
Kd [2]: > 200 µM

CN1CCN([C@@H]2CO[C@H](CO)[C@H](O)[C@@H]2O)C1=O [Compound A392, 1-((3R,4R,5R,6R)-4,5-dihydroxy-6-(hydroxymethyl)tetrahydro-2H-pyran-3-yl)-3-methylimidazolidin-2-one]
Kd [1]: 100 to 500 µM

CN(C)[C@@H]1CO[C@H](CO)[C@H](O)[C@@H]1O [Compound A393, (2R,3R,4R,5R)-5-(dimethylamino)-2-(hydroxymethyl)tetrahydro-2H-pyran-3,4-diol]
Kd [1]: 100 to 500 µM

Cn1cc([C@@H]2CO[C@H](CO)[C@H](O)[C@@H]2O)cn1 [Compound A394, (2R,3R,4R,5R)-2-(hydroxymethyl)-5-(1-methyl-1H-pyrazol-4-yl)tetrahydro-2H-pyran-3,4-diol]
Kd [2]: > 200 µM

OC[C@H]1OC[C@@H](c2cncnc2)[C@@H](O)[C@H]1O [Compound A395, (2R,3R,4R,5R)-2-(hydroxymethyl)-5-(pyrimidin-5-yl)tetrahydro-2H-pyran-3,4-diol]
Kd [2]: > 200 µM

OC[C@H]1O[C@H]2[C@@H]([C@@H](O)[C@H]1O)C2(Cl)Cl [Compound A397, (1S,3R,4R,5R,6R)-7,7-dichloro-3-(hydroxymethyl)-2-oxabicyclo[4.1.0]heptane-4,5-diol]
Kd [1]: 100 to 500 µM

NC(=O)C[C@@H]1CO[C@H](CO)[C@H](O)[C@@H]1O [Compound A399, 2-((3R,4R,5R,6R)-4,5-dihydroxy-6-(hydroxymethyl)tetrahydro-2H-pyran-3-yl)acetamide]
Kd [2]: > 200 µM

CNC(=O)[C@@H]1CO[C@H](CO)[C@H](O)[C@@H]1O [Compound A400, (3R,4R,5R,6R)-4,5-dihydroxy-6-(hydroxymethyl)-N-methyltetrahydro-2H-pyran-3-carboxamide]
Kd [2]: > 200 µM

COC(=O)[C@@H]1CO[C@H](CO)[C@H](O)[C@@H]1O [Compound A401, methyl (3R,4R,5R,6R)-4,5-dihydroxy-6-(hydroxymethyl)tetrahydro-2H-pyran-3-carboxylate]
Kd [2]: > 200 µM

CC(=O)NCCNC[C@@H]1CO[C@H](CO)[C@H](O)[C@@H]1O [Compound A402, N-(2-((((3R,4R,5R,6R)-4,5-dihydroxy-6-(hydroxymethyl)tetrahydro-2H-pyran-3-yl)methyl)amino)ethyl)acetamide]
Kd [2]: > 200 µM

NC(=O)NC[C@@H]1CO[C@H](CO)[C@H](O)[C@@H]1O [Compound A403, 1-(((3R,4R,5R,6R)-4,5-dihydroxy-6-(hydroxymethyl)tetrahydro-2H-pyran-3-yl)methyl)urea]
Kd [2]: > 20 µM

C=CCO[C@H]1O[C@H](CO)[C@H](O)[C@H](O)[C@H]1NC(=O)C(F)(F)F [Compound A404, N-((2S,3R,4R,5R,6R)-2-(allyloxy)-4,5-dihydroxy-6-(hydroxymethyl)tetrahydro-2H-pyran-3-yl)-2,2,2-trifluoroacetamide]
Kd [1]: < 100 µM

C=CCO[C@H]1O[C@H](CO)[C@H](O)[C@H](O)[C@H]1Nc1nc(Cl)ns1 [Compound A405, (2R,3R,4R,5R,6S)-6-(allyloxy)-5-((3-chloro-1,2,4-thiadiazol-5-yl)amino)-2-(hydroxymethyl)tetrahydro-2H-pyran-3,4-diol]
Kd [1]: < 100 µM

C=CCO[C@H]1O[C@H](CO)[C@H](O)[C@H](O)[C@H]1Nc1nccc(C(F)(F)F)n1 [Compound A406, (2R,3R,4R,5R,6S)-6-(allyloxy)-2-(hydroxymethyl)-5-((4-(trifluoromethyl)pyrimidin-2-yl)amino)tetrahydro-2H-pyran-3,4-diol]
Kd [1]: < 100 µM

NC(COCCC(=O)NCCOCCOCCOCCOC[C@H]1OC[C@H](Nc2nccc(C(F)(F)F)n2)[C@@H](O)[C@H]1O)COCCC(=O)NCCOCCOCCOCCOC[C@H]1OC[C@H](Nc2nccc(C(F)(F)F)n2)[C@@H](O)[C@H]1O [Compound A422, 3,3′-((2-aminopropane-1,3-diyl)bis(oxy))bis(N-(1-((2R,3R,4R,5S)-3,4-dihydroxy-5-((4-(trifluoromethyl)pyrimidin-2-yl)amino)tetrahydro-2H-pyran-2-yl)-2,5,8,11-tetraoxatridecan-13-yl)propanamide)]
Kd (ASGPR ligands with linker, Table 5, read-out: ASGPR_SPR Binding KD): < 100 µM

NC[C@@H]1CO[C@H](CO)[C@H](O)[C@@H]1O [Compound A425, (2R,3R,4R,5R)-5-(aminomethyl)-2-(hydroxymethyl)tetrahydro-2H-pyran-3,4-diol]
Kd [1]: > 1000 µM

COc1cc(N[C@H]2[C@H]3OC[C@](CO)(O3)[C@H](O)[C@@H]2O)nc(C#N)n1 [Compound A426]
Kd [1]: < 100 µM

OC[C@@]12CO[C@@H](O1)[C@H](Nc1cncc(C(F)(F)F)n1)[C@@H](O)[C@H]2O [Compound A427]
Kd [1]: < 100 µM

(2R,3R,4R,5R)-2-(hydroxymethyl)-5-((4-methylpiperazin-1-yl)methyl)tetrahydro-2H-pyran-3,4-diol [Compound A212]
Kd [1]: 100 to 500 µM
